Common to all, as to type: biochemical
For one test, the target named is Human PDE4C (Homo sapiens (Human), UniProt Q08493). Description: PDE4C Scintillation Proximity Assay (SPA), inhibition of enzyme activity. Particulars: read-out: Human PDE4C FL.
The next test deals with Human PDE4D (Homo sapiens (Human), UniProt Q08499). Description: PDE4D Scintillation Proximity Assay (SPA), inhibition of enzyme activity. Particulars: read-out: Human PDE4D FL. (In general: In a scintillation proximity assay essentially only radioactivity close to the scintillant gives light.)
Chain of Human PDE4D (Q08499 186-808): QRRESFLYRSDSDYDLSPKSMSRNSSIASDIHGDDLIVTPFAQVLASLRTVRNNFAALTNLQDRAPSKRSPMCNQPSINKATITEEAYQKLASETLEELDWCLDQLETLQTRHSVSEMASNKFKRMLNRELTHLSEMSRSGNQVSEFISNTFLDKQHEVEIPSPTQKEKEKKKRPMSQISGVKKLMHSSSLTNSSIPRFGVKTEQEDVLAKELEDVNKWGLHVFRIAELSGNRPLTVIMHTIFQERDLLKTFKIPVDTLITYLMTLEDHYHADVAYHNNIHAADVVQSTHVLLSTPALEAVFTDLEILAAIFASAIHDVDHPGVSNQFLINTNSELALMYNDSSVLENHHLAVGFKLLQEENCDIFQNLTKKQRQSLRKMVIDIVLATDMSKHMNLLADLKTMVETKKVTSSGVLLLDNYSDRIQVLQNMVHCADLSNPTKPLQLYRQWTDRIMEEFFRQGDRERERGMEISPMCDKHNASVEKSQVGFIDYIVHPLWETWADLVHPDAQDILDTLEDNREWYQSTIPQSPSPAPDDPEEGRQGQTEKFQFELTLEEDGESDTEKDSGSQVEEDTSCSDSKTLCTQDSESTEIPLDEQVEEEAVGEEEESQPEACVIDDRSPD
In the next test the target is Human PDE4A (Homo sapiens (Human), UniProt P27815). The experiment in a line: PDE4A Scintillation Proximity Assay (SPA), inhibition of enzyme activity. The following applies: read-out: Human PDE4A FL.
Chain of Human PDE4A (P27815 other isoform, or with tags, fused parts or gaps): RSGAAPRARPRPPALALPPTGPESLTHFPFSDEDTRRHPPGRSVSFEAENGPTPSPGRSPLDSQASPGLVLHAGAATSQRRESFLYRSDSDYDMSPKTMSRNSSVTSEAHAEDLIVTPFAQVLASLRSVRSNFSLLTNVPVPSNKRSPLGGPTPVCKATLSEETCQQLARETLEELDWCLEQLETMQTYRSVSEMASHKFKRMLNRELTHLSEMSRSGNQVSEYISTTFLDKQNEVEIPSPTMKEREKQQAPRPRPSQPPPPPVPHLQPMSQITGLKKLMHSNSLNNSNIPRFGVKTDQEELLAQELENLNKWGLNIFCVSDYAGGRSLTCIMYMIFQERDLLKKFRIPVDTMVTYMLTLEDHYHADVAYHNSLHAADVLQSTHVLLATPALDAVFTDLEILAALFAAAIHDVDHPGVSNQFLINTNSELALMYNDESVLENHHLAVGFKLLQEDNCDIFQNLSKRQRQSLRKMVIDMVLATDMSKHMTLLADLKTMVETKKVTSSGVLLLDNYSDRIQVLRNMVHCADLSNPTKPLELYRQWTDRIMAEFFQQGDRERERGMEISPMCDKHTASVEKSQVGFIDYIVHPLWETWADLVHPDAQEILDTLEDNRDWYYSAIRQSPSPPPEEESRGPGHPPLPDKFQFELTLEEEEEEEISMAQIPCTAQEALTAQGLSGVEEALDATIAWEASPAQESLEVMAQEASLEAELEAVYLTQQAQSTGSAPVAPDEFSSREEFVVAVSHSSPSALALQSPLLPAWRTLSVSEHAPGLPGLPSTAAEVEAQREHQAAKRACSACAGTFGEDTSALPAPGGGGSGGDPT
Where [1] appears, read: human recombinant enzyme, 1 μM cAMP substrate, 30 min at 25° C., geometric mean of 2-9 determinations unless otherwise indicated.

Read-outs that look alike come from different tables or passages of the source.

The source of these data is patent US9598421B2, “Imidazopyridazine compounds” (Pfizer Inc., priority 2014, dated 2017).

Chain of Human PDE4C (Q08493 2-712): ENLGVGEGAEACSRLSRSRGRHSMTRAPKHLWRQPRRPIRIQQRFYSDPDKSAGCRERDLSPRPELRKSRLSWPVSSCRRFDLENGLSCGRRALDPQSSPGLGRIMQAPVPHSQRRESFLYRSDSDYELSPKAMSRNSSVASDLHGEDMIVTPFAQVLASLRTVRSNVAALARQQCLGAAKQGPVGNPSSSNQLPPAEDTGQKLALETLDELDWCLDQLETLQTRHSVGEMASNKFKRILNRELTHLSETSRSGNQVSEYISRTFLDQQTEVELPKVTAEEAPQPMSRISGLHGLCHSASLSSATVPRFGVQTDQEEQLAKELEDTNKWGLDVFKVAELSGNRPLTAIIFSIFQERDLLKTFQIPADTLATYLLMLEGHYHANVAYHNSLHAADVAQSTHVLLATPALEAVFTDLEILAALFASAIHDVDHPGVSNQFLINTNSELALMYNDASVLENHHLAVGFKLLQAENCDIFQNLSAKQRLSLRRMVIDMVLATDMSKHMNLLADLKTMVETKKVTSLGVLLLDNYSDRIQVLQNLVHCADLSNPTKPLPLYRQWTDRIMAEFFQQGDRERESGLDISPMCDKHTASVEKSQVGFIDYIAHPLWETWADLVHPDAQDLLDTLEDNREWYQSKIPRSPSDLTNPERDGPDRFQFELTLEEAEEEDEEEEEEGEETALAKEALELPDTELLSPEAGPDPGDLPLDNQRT
Experimental for Human PDE4A: (§1) The PDE4A3, PDE4B1, PDE4C1 and PDE4D3 assays use the Scintillation Proximity Assay (SPA) technology to measure the inhibition of human recombinant PDE4A1, PDE4B3, PDE4C1, and PDE4D3 enzyme activity by compounds in vitro. The PDE4A1, PDE4B3, PDE4C1, and PDE4D3 assays are run in parallel using identical parameters, except for the concentration of enzyme (80 pM PDE4A3, 40 pM PDE4B3, 40 pM PDE4C1 and 10 pM PDE4D). […] Reactions are incubated for 30 min at 25° C. The addition of 20 uL of 8 mg/ml yitrium silicate SPA beads (Perkin Elmer) stops the reaction. The plates are sealed (TopSeal, Perkin Elmer) and the beads are allowed to settle for 8 hrs, after which they are read on the Trilux Microbeta overnight.
Experimental for Human PDE4C: as §1

Turning to `O=C(c1nc2cccnn2c1-c1ccc(Cl)cc1)N1CCC1` [Example 1, Azetidin-1-yl[3-(4-chlorophenyl)imidazo[1,2-b]pyridazin-2-yl]methanone], the IC50 on Human PDE4C came to 130 nM; at Human PDE4D, 10300 nM.

On to `O=C(NC1CC1)c1nc2cccnn2c1-c1ccc(Cl)cc1` [Example 2, 3-(4-Chlorophenyl)-N-cyclopropylimidazo[1,2-b]pyridazine-2-carboxamide], for which the IC50 worked out at 10.7 nM on Human PDE4A, 27.9 nM on Human PDE4C and 4340 nM on Human PDE4D.

On to `COc1c(F)cc(-c2c(C(=O)N3CCC3)nc3cccnn23)cc1F` [Example 3, Azetidin-1-yl[3-(3,5-difluoro-4-methoxyphenyl)imidazo[1,2-b]pyridazin-2-yl]methanone], for which the IC50 stood at 12.7 nM on Human PDE4A, 51.9 nM at Human PDE4C and 2410 nM on Human PDE4D.

Consider `N#Cc1ccc(-c2c(C(=O)NC3CC3)nc3cccnn23)cn1` [Example 5, 3-(6-Cyanopyridin-3-yl)-N-cyclopropylimidazo[1,2-b]pyridazine-2-carboxamide], for which the results for the IC50 on Human PDE4A (setting [1]), at Human PDE4C (setting [1]) and at Human PDE4D were 40.2 nM, 208 nM and more than 26600 nM, respectively.

`Cn1cc(NC(=O)c2nc3cccnn3c2-c2ccc(Cl)c(F)c2)cn1` [Example 7, 3-(4-Chloro-3-fluorophenyl)-N-(1-methyl-1H-pyrazol-4-yl)imidazo[1,2-b]pyridazine-2-carboxamide]: the IC50 at Human PDE4A turned out to be 2.77 nM; at Human PDE4C, 2.35 nM; on Human PDE4D it was 34.5 nM.

As to `O=C(c1nc2cccnn2c1-c1ccc2ccnn2c1)N1CCC1` [Example 8, Azetidin-1-yl[3-(pyrazolo[1,5-a]pyridin-6-yl)imidazo[1,2-b]pyridazin-2-yl]methanone], the IC50 at Human PDE4A (setting [1]) turned out to be 20 nM; at Human PDE4D (setting [1]), 5440 nM.

Regarding `O=C(NC1CC1)c1nc2cccnn2c1-c1cc(F)c(Cl)cc1F` [Example 9, 3-(4-Chloro-2,5-difluorophenyl)-N-cyclopropylimidazo[1,2-b]pyridazine-2-carboxamide], the IC50 came out at 3.83 nM at Human PDE4A (setting [1]), 40.9 nM on Human PDE4C (setting [1]) and 1490 nM at Human PDE4D (setting [1]).

Turning to `O=C(NC1CC1)c1nc2cccnn2c1-c1ccc(Cl)c(F)c1` [Example 10, 3-(4-chloro-3-fluorophenyl)-N-cyclopropylimidazo[1,2-b]pyridazine-2-carboxamide], the IC50 on Human PDE4A (setting [1]) amounted to 1.51 nM; at Human PDE4C (setting [1]), 6.84 nM; on Human PDE4D (setting [1]), 590 nM.

For `Cc1cc(Cl)ccc1-c1c(C(=O)NC2CC2)nc2cccnn12` [Example 12, 3-(4-chloro-2-methylphenyl)-N-cyclopropylimidazo[1,2-b]pyridazine-2-carboxamide], the IC50 on Human PDE4A (setting [1]) turned out to be 14.4 nM; at Human PDE4C (setting [1]) it was 89.6 nM; at Human PDE4D (setting [1]), 5220 nM.

On to `O=C(c1nc2cccnn2c1-c1ccc(Cl)c(F)c1)N1CCC1` [Example 13, azetidin-1-yl[3-(4-chloro-3-fluorophenyl)imidazo[1,2-b]pyridazin-2-yl]methanone], for which the IC50 on Human PDE4A (setting [1]) was 5.13 nM; at Human PDE4C (setting [1]), 17.3 nM; at Human PDE4D (setting [1]), 669 nM.

As to `O=C(NC1CC1)c1nc2cccnn2c1-c1cncc(Cl)c1` [Example 14, 3-(5-chloropyridin-3-yl)-N-cyclopropylimidazo[1,2-b]pyridazine-2-carboxamide], the figures for the IC50 on Human PDE4A (setting [1]), on Human PDE4C (setting [1]) and on Human PDE4D (setting [1]) were 73.7 nM, 108 nM and more than 8010 nM, respectively.

In the case of `Cc1cc(C#N)c(F)cc1-c1c(C(=O)NC(C)C)nc2cccnn12` [Example 99, 3-(4-cyano-5-fluoro-2-methylphenyl)-N-(propan-2-yl)imidazo[1,2-b]pyridazine-2-carboxamide], the IC50 on Human PDE4A (setting [1]) was 19.8 nM.

Regarding `O=C(Nc1ccn[nH]1)c1nc2cccnn2c1-c1ccc(Cl)cc1` [Example 103, 3-(4-chlorophenyl)-N-(1H-pyrazol-5-yl)imidazo[1,2-b]pyridazine-2-carboxamide], the IC50 at Human PDE4A (setting [1]) was 62.7 nM.
